Drawing on ChEMBL document CHEMBL1135545, “Conformational memories and the endocannabinoid binding site at the cannabinoid CB1 receptor” (J Med Chem, 2002), this text covers Ki for six compounds.

The experiment has as its target Cannabinoid receptor 1 (Homo sapiens, UniProt P21554). In words: Compound was evaluated for its binding affinity towards Cannabinoid receptor 1 [Inactive form(R) of CB1 receptor].

In general, pKi refers to the negative decadic logarithm of the Ki, by convention in mol/L. Low values mean a large Ki, high ones a small Ki.

SMILES strings stand for the structures. pKi: −log10 of the molar value. Bounds are passed on as bounds.

Chain of Cannabinoid receptor 1 (P21554 whole entry): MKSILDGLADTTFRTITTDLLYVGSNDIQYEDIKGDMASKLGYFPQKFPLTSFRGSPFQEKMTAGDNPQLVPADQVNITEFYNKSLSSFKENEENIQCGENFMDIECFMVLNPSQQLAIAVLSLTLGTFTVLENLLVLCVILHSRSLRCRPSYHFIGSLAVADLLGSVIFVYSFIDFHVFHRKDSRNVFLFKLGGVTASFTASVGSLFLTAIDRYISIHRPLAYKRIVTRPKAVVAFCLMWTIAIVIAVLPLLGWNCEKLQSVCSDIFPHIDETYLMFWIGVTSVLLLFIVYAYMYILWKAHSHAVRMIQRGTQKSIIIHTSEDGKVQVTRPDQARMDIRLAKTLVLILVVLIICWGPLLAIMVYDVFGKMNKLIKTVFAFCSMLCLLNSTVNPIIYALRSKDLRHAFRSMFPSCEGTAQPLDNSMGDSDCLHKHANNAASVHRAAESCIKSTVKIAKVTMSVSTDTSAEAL

`CCCCC/C=C\C/C=C\C/C=C\C/C=C\CC[C@H](C)C(=O)N[C@@H](C)CO` gave a pKi of 6.41.
The value for `CCCCC/C=C\C/C=C\C/C=C\C/C=C\CC[C@@H](C)C(=O)N[C@H](C)CO` was 8.13; that for `CCCCC/C=C\C/C=C\CCCCCCCCCC(=O)NCCO` was less than 5.82.
As for `CCCCC/C=C\C/C=C\C/C=C\C/C=C\CC[C@@H](C)C(=O)N[C@@H](C)CO`, the pKi is 6.63.
The value for `CCCCC/C=C\C/C=C\C/C=C\C/C=C\CCCCCC(=O)NCCO` was 7.46.
Under `CCCCC/C=C\C/C=C\C/C=C\C/C=C\CC[C@H](C)C(=O)N[C@H](C)CO` stands 6.73.
